# What was measured:
# hMics binding = assay type: in vitro ADME; settings: human microsomes; read-out: hMics binding % bound (converted)
# rMics binding = assay type: in vitro ADME; settings: rat microsomes; read-out: rMics binding % bound (converted)
# hPPB = assay type: in vitro ADME; settings: human plasma protein binding; read-out: hPPB % bound (converted)
# rPPB = assay type: in vitro ADME; settings: rat plasma protein binding; read-out: rPPB % bound (converted)
# In vivo rat PK = settings: for clearance: iv, read-out: In vivo rat PK CL (i.v.); for Cmax / bioavailability / half-life: po; for bioavailability: read-out: In vivo rat PK F %; for half-life: read-out: In vivo rat PK T½ (p.o.) (converted)
# Text: The experiment was repeated for three times and the mean value was taken.
# ICR mice [1] = test: immobility time of tail suspension in mice; assay type: in vivo; settings: i.p.; for immobility time of tail suspension in mice: 60 minutes after dosing
# Protocol: (§1) Animals used for experiments were adult male ICR mice weighing 18˜25 g, housed in 8 pcs/cages, regulated with a 12/12 hour light/dark cycle, maintained at a constant temperature of 23±1° C. and a humidity of 50˜60% and allowed ad libitum access to rodent chow and water. After animals were purchased from the experimental animal center and performed an adaptive housing, the experiment was allowed to start.
# (§2) After animal adaptive housing, all the animals were randomly divided into three groups:
# (§3) Group one: negative control group, intraperitoneally injected with 1% DMSO in physiological saline (10.0 ml/kg, i.p.);
# Group two: experimental drug group, the mice were intraperitoneally injected respectively with different doses of the test compound Co. 1: 0.1, 0.5, 1, 5 and 10 mg/kg, i.p., the drug was formulated in 1% DMSO in physiological saline;
# (§4) Group three: positive drug control group, the mice were intraperitoneally injected with Desipramine (20 mg/kg, i.p., the drug was formulated in 1% DMSO in physiological saline).
# The experiment employed Shanghai Jiliang animal behavior video analysis system, wherein the experimental environment was kept absolutely silent, when grabbing animals and administrating, movements were gentle to minimize adverse reactions of mental condition and emotion brought by external stimulus. 60 minutes after dosing, the site 20 mm from the tail end was fixed and the mice were hung upside-down in an activity box for 6 minutes. The immobility time in later 4 minutes was analyzed.
# ICR mice [2] = test: spontaneous activity in mice; assay type: in vivo; settings: each test dose (0.1, 0.5, 1, 5 and 10 mg/kg, i.p.); 60 minutes after dosing; P>0.05 compared with negative control
# Protocol: as §1, §2, §3
# Group two: experimental drug group, the mice were intraperitoneally injected respectively with different doses of test compound Co. 1: 0.1, 0.5, 1, 5 and 10 mg/kg, i.p., the drug was formulated in 1% DMSO in physiological saline. […]
# The experiment employed Shanghai Jiliang animal behavior video analysis system, wherein the experimental environment was kept absolutely silent, when grabbing animals and administrating, movements were gentle to minimize adverse reactions of mental condition and emotion brought by external stimulus. […] The spontaneous activity box was connected to a recording apparatus and the activity conditions of mice within 30-60 minutes were recorded. The effects of drug or control substances on spontaneous activity in mice were determined.
# [3] = from Zhao, Chinese Journal of Psychiatry, Vol. 35, No. 4; cited from earlier work
# ICR mice [4] = test: immobility time of forced swimming in mice; assay type: in vivo; settings: i.p.
# Protocol: as §1, §2, §3
# Group two: experimental drug group, the mice were intraperitoneally injected respectively with different doses of test compound Co. 3: 0.1, 0.5, 1, 5 and 10 mg/kg, i.p., the drug was formulated in 1% DMSO in physiological saline;
# as §4
# The mice were placed in a large beaker with a height of about 40 cm and an internal diameter of about 19 cm, loaded with water with a temperature of 24˜25° C. inside. The water level reached 22 cm height (Porsolt et al., 1977). […] 30 minutes, or 60 minutes later, the mice were placed into a beaker loaded with water, and immobility time of animals within 5 minutes was measured. […]
SMILES,fraction unbound (hPPB),fraction unbound (rPPB),clearance (In vivo rat PK),Cmax (In vivo rat PK),bioavailability (In vivo rat PK),half-life (In vivo rat PK),further results
"CN1CCN2c3ncccc3Cc3ccccc3C2C1 (stereo not drawn) [Mirtazapine, reference compound]",0.2,0.11,101 mL/min/kg,30 ng/mL,14%,–,fraction unbound (hMics binding): 0.69; fraction unbound (rMics binding): 0.79
CN1C[C@@H]2c3ncccc3Oc3cc(Cl)ccc3[C@@H]2C1 [Co. 1],0.13,0.2,–,51 ng/mL,–,276 min,"immobility time of tail suspension in mice (ICR mice [1]; 0.1 and 0.5 mg/kg): no effect; immobility time of tail suspension in mice (ICR mice [1]; 1.0, 5.0 and 10 mg/kg, P<0.05-0.01 compared to the negative control group): significantly inhibited; inhibitory effect on the immobility time of tail suspension compared to positive drug Desipramine (ICR mice [1]; Desipramine 20 mg/kg): similar; spontaneous activity in mice (ICR mice [2]): no significant effect"
c1ccc2c(c1)Cc1cccnc1N1CCNCC21 (stereo not drawn) [Demethylated mirtazapine],–,–,–,–,–,–,share of the drug activity of mirtazapine [3]: 3%-10%
CCN1C[C@@H]2c3ncc(C)cc3Oc3cc(F)c(C)cc3[C@@H]2C1 [Co. 3],–,–,–,–,–,–,"immobility time of forced swimming in mice (ICR mice [4]; 0.5, 1.0, 5.0 and 10 mg/kg, P<0.05-0.01 compared to the negative control group): significantly extended; effect on immobility time of forced swimming compared to positive drug Desipramine (ICR mice [4]; Desipramine 20 mg/kg, P<0.05): stronger"
CN1C[C@@H]2c3ncccc3Oc3ccccc3[C@@H]2C1 [Co. 2],0.45,0.63,139 mL/min/kg,17 ng/mL,12%,534 min,–

# Source: patent US20140343089A1, “NOREPINEPHRINE AND SELECTIVE SEROTONIN RECEPTOR BLOCKER AND USE THEREOF” (priority 2011, published 2014)
